Laboratory results as given in US20240051985A1, “METTL3 MODULATORS” (ACCENT THERAPEUTICS, INC., priority 2020, published 2024).

Columns and labels:
[1] = target: METTL3/METTL14 (Homo sapiens, UniProt Q86U44); assay: METTL3-14 standard enzyme assay (3H-SAM flashplate); details: METTL3 biochemical assay
How it was run: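 METTL3/METTL14 (2.5 nM) preincubated 5 min, then reacted with 3′-biotinylated RNA UCUGGACUAAA (100 nM) and 3H-SAM (100 nM) for 30 min at ambient temperature in 20 mM HEPES pH 7.5, 50 mM KCl, 250 μM MgCl2, 1 mM DTT. Quenched with 15 μM cold SAM; product captured on streptavidin flashplates, scintillation counted.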

[2] = target: PRMT5-MEP50 (Homo sapiens, UniProt O14744); assay: PRMT5 assay (3H-SAM flashplate); details: PRMT5 biochemical assay
How it was run: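 PRMT5-MEP50 at 2.5 nM, preincubated 5 min with compound in 20 mM Tris-HCl pH 8.0, 1 mM DTT, 0.01% Tween at ambient temperature. Biotinylated acetylated histone H4 peptide (100 nM) and 3H-SAM (250 nM) react 60 min, quenched with 15 μM cold SAM; methylation captured on streptavidin flashplates and scintillation-counted.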

[3] = target: T1, FLT3 (Homo sapiens, UniProt P36888); assay: FLT3 LanthaScreen assay; format: biochemical; details: Table 4
T1 sequence (P36888 27-993): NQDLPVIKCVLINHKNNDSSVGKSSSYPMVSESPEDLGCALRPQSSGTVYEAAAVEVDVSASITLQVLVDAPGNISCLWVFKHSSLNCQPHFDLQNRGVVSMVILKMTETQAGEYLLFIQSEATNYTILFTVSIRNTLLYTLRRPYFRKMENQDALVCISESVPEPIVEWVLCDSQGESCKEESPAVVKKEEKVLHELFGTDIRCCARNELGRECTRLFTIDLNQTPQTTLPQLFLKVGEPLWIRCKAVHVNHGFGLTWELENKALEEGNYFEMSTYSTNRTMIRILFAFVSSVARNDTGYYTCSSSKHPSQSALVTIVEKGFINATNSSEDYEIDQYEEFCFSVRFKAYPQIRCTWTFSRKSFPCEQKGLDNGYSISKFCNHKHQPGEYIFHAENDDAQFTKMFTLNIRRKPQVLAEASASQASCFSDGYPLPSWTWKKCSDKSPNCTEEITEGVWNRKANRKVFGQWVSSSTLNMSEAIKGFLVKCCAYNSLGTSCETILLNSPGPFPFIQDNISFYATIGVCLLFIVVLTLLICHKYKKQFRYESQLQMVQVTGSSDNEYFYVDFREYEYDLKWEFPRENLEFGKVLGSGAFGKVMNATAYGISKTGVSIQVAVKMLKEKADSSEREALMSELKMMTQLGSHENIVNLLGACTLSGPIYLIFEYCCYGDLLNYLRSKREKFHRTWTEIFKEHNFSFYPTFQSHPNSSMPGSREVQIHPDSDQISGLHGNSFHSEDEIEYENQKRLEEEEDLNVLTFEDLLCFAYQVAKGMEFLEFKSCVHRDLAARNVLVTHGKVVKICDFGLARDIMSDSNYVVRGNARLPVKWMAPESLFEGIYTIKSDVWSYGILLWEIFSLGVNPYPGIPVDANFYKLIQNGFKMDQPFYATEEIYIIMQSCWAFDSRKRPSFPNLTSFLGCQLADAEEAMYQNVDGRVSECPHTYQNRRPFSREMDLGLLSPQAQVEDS
Protocol: (§1) FLT3/FLT3-ITD LanthaScreen Assays
(§2) Assays were performed in a 10 μl-volume in 384-well polypropylene microplates (Perkin Elmer Proxiplate, cat. No. 6059480) at ambient temperature. Optimized 1× assay buffer was 50 mM Hepes pH 7.5, 2 mM DTT, 0.01% Tween, 0.01% BSA, 10 mM MgCl2. For compound screening FLT3 (final concentration, f.c.=[…]) or FLT3-ITD (f.c.=[…]) was added using a Multidrop Combi (ThermoFisher Scientific, Waltham, MA) and preincubated for 10 min. Reactions were started by adding fluorescein-poly GT (f.c.=200 nM) and ATP (f.c.=57 μM) substrates. Reactions proceeded for 40 minutes. The reactions were stopped with a detection mixture of EDTA (f.c.=20 mM) and terbium-conjugated anti-phoso tyrosine antibody pY20 (f.c.=2 nM). The plates were sealed and read on an Envision (PerkinElmer, Waltham, MA) using 340 nm excitation and emission reads at 495 and 520 nM.

[4] = target: T2, FLT3-ITD (Homo sapiens, UniProt P36888); assay: FLT3-ITD LanthaScreen assay; format: biochemical; details: Table 4
T2 sequence (P36888 1-993): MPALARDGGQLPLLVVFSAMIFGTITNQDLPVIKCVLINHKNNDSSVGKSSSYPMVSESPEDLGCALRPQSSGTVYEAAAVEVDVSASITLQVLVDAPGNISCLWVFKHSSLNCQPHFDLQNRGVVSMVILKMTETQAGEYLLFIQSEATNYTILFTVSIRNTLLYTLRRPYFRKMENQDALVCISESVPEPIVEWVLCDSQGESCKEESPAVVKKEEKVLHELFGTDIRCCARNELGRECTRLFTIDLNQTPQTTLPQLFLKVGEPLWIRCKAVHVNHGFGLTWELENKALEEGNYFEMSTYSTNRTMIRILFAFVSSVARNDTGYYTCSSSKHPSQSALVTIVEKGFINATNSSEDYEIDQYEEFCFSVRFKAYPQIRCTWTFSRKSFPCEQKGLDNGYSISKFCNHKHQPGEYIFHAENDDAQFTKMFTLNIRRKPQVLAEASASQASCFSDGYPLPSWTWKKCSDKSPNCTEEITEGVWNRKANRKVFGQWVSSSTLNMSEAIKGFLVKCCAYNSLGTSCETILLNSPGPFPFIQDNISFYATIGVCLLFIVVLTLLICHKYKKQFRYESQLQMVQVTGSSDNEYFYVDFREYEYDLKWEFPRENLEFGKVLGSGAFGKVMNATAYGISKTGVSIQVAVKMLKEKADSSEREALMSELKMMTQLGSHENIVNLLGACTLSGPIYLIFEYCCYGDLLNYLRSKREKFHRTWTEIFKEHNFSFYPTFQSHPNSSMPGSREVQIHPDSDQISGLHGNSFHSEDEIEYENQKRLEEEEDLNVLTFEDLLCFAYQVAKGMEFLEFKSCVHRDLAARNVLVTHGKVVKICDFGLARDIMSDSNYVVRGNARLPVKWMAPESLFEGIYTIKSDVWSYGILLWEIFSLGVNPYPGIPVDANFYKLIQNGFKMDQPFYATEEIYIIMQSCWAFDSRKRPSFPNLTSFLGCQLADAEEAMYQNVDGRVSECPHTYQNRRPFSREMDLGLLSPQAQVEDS
Protocol: as §1, §2

[5] = target: T2, FLT3-ITD; assay: FLT3-ITD Caliper assay; format: biochemical; details: Table 4; read-out: FLT3-ITD Calipher assay IC50
Protocol: (§3) FLT3/FLT3-ITD Caliper Assays
(§4) Assays were performed in a 20 μl-volume in 384-well polypropylene microplates (Perkin Elmer Proxiplate, cat. No. 6059480) at ambient temperature. Optimized 1× assay buffer was 50 mM Hepes pH 7.5, 2 mM DTT, 0.01% Tween, 0.01% BSA, 10 mM MgCl2. For compound screening FLT3 (final concentration, f.c.=0.9 nM) or FLT3-ITD (f.c.=7 nM) was added using a Multidrop Combi (ThermoFisher Scientific, Waltham, MA) and preincubated for 10 min. Reactions were started by adding fluorescein-peptide (sequence 5-FAM-EAIYAAPFAKKK-CONH2) (f.c.=300 μM) and ATP (FLT3 f.c.=97 μM FLT3-ITD f.c.=146 μM) substrates. Reactions proceeded for 60 minutes. The reactions were stopped with LabChip ProfilerPro Separation Buffer containing EDTA (f.c.=20 mM). The plates were read on a Caliper microfluidics reader (PerkinElmer, Waltham, MA).

[6] = target: T1, FLT3; assay: FLT3 Caliper assay; format: biochemical; details: Table 4; read-out: FLT3 Calipher assay IC50
Protocol: as §3, §4

Sequence of METTL3/METTL14 (Q86U44 whole entry, species assumed): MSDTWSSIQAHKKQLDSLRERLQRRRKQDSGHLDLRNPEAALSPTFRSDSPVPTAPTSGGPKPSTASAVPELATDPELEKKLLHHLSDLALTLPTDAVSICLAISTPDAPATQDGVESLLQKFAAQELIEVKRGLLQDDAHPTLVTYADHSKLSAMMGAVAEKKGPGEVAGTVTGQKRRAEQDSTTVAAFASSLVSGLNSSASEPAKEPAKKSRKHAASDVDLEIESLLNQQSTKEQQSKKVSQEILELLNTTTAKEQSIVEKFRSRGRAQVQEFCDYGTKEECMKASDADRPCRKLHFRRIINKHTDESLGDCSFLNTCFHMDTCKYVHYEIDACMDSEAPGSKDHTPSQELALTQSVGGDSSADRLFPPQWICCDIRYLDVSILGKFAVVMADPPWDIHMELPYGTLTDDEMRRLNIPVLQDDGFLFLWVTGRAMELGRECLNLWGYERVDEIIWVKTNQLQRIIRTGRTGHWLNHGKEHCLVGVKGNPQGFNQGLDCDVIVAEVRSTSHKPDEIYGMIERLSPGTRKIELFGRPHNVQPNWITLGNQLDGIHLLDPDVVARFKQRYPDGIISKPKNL
Sequence of METTL3/METTL14 (Q9HCE5 whole entry partner, species assumed): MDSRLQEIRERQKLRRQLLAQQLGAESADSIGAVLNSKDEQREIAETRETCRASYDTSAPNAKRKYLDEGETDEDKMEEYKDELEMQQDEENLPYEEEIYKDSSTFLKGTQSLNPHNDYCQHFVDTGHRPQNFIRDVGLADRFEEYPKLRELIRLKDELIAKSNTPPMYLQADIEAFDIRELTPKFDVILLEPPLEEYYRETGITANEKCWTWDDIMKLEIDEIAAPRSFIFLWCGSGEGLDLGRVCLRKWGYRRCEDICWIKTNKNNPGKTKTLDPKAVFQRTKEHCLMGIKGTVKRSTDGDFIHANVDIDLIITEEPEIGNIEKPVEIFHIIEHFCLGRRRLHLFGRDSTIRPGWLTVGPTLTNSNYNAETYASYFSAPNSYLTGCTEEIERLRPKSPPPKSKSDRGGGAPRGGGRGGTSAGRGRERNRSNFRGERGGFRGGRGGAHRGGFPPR
Sequence of PRMT5-MEP50 (O14744 whole entry): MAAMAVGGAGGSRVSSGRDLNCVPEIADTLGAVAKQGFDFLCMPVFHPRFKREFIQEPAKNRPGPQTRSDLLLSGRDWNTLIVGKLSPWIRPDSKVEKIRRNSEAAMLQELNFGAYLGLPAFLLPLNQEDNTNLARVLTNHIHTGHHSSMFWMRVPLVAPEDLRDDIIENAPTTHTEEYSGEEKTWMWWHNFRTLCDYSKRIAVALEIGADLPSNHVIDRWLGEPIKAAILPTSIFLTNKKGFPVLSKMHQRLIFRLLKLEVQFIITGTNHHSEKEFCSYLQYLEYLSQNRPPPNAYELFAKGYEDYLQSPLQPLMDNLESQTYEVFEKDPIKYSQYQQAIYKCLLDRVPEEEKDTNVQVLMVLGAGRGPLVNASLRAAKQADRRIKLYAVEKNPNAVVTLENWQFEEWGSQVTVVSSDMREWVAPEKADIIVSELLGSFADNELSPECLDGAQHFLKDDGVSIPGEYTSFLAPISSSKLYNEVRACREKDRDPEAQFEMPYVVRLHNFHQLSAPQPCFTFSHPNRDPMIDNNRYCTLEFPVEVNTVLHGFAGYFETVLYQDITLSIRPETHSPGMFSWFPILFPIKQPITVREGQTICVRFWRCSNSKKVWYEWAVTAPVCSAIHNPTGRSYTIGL
Sequence of PRMT5-MEP50 (Q9BQA1 whole entry partner): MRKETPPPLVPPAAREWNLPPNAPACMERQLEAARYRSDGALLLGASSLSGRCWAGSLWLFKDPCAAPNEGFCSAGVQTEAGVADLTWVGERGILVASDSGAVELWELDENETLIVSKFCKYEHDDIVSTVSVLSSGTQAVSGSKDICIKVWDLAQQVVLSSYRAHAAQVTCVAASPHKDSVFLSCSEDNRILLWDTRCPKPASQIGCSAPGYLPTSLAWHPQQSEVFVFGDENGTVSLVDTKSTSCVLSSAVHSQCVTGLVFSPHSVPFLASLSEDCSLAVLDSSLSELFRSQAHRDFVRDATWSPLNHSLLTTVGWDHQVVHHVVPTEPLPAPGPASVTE

Row | Structure (SMILES) | IC50 ([1]; Table 4) [nM] | IC50 ([2]; Table 4) [nM] | IC50 [3] [nM] | IC50 [4] [nM] | IC50 ([1]; Table 3) [nM] | IC50 ([2]; Table 3) [nM] | IC50 [5] [nM] | IC50 [6] [nM]
1 | Cn1ccc(-c2cn([C@@H]3O[C@H](C(=O)N4CCCC(NS(C)(=O)=O)C4)[C@@H](O)[C@H]3O)c3ncnc(N)c23)n1 (stereo in doubt) [Compound I-185] | ≥ 1000 | 100 to 1000 | ≥ 1000 | ≥ 1000 | – | – | – | –
2 | CN1CCC(N(CC[C@H](N)C(=O)O)C(=O)[C@H]2O[C@@H](n3cc(-c4ccn(C)n4)c4c(N)ncnc43)[C@H](O)[C@@H]2O)CC1 [Compound I-31, (S)-2-amino-4-((2S,3S,4R,5R)-5-(4-amino-5-(1-methyl-1H-pyrazol-3-yl)-7H-pyrrolo[2,3-d]pyrimidin-7-yl)-3,4-dihydroxy-N-(1-methylpiperidin-4-yl)tetrahydrofuran-2-carboxamido)butanoic acid] | – | – | ≥ 1000 | ≥ 1000 | < 10 | < 10 | – | –
3 | COC(=O)[C@@H](N)CCNC(=O)[C@H]1O[C@@H](n2cc(-c3ccn(C)n3)c3c(N)ncnc32)[C@H](O)[C@@H]1O [Compound I-42, methyl (2S)-2-amino-4-{[(2S,3S,4R,5R)-5-[4-amino-5-(1-methyl-1H-pyrazol-3-yl)-7H-pyrrolo[2,3-d]pyrimidin-7-yl]-3,4-dihydroxyoxolan-2-yl]formamido}butanoate] | ≥ 1000 | 100 to 1000 | ≥ 1000 | ≥ 1000 | – | – | – | –
4 | Cn1ccc(-c2cn([C@@H]3O[C@H](C(=O)NCC[C@H](N)C(=O)O)[C@@H](O)[C@H]3O)c3ncnc(N)c23)n1 [Compound I-43] | 100 to 1000 | ≥ 1000 | ≥ 1000 | ≥ 1000 | – | – | – | –
5 | CN1CCC(NC(=O)[C@H]2C[C@@H](n3cc(-c4ccn(C)n4)c4c(N)ncnc43)[C@H](O)[C@@H]2O)CC1 [Compound I-44, (1S,2R,3S,4R)-4-[4-amino-5-(1-methyl-1H-pyrazol-3-yl)-7H-pyrrolo[2,3-d]pyrimidin-7-yl]-2,3-dihydroxy-N-(1-methylpiperidin-4-yl)cyclopentane-1-carboxamide] | 100 to 1000 | 10 to 100 | ≥ 1000 | ≥ 1000 | – | – | – | –
6 | Cn1ccc(-c2cn([C@@H]3O[C@H](C(=O)NC[C@H]4CC[C@@H](O)CC4)[C@@H](O)[C@H]3O)c3ncnc(N)c23)n1 [Compound I-45, (2S,3S,4R,5R)-5-[4-amino-5-(1-methyl-1H-pyrazol-3-yl)-7H-pyrrolo[2,3-d]pyrimidin-7-yl]-3,4-dihydroxy-N-{[(1s,4s)-4-hydroxycyclohexyl]methyl}oxolane-2-carboxamide] | ≥ 1000 | ≥ 1000 | ≥ 1000 | ≥ 1000 | – | – | – | –
7 | CN1CCC[C@@H](NC(=O)[C@H]2O[C@@H](n3cc(-c4ccn(C)n4)c4c(N)ncnc43)[C@H](O)[C@@H]2O)C1 [Compound I-46, (2S,3S,4R,5R)-5-[4-amino-5-(1-methyl-1H-pyrazol-3-yl)-7H-pyrrolo[2,3-d]pyrimidin-7-yl]-3,4-dihydroxy-N-[(3R)-1-methylpiperidin-3-yl]oxolane-2-carboxamide] | ≥ 1000 | 10 to 100 | ≥ 1000 | ≥ 1000 | – | – | – | –
8 | Cn1ccc(-c2cn([C@@H]3O[C@H](C(=O)NCCc4c[nH]cn4)[C@@H](O)[C@H]3O)c3ncnc(N)c23)n1 [Compound I-228] | 100 to 1000 | 100 to 1000 | – | – | – | – | ≥ 1000 | ≥ 1000
9 | Cn1ccc(-c2cn([C@@H]3O[C@H](C(=O)NCC#N)[C@@H](O)[C@H]3O)c3ncnc(N)c23)n1 [Compound I-229] | ≥ 1000 | ≥ 1000 | – | – | – | – | ≥ 1000 | ≥ 1000

The remaining lines, values ahead:

Row | IC50 ([1]; Table 4) [nM] | IC50 ([2]; Table 4) [nM] | IC50 [3] [nM] | IC50 [4] [nM] | IC50 ([1]; Table 3) [nM] | IC50 ([2]; Table 3) [nM] | IC50 [5] [nM] | IC50 [6] [nM] | Structure (SMILES)
10 | 100 to 1000 | 100 to 1000 | ≥ 1000 | ≥ 1000 | – | – | – | – | CC1CC(NC(=O)[C@H]2O[C@@H](n3cc(-c4ccn(C)n4)c4c(N)ncnc43)[C@H](O)[C@@H]2O)CCN1 (stereo in doubt) [Compound I-211]
11 | 100 to 1000 | 100 to 1000 | ≥ 1000 | ≥ 1000 | – | – | – | – | CC1CC(NC(=O)[C@H]2O[C@@H](n3cc(-c4ccn(C)n4)c4c(N)ncnc43)[C@H](O)[C@@H]2O)CCN1 (stereo in doubt) [Compound I-212]
12 | 100 to 1000 | 100 to 1000 | ≥ 1000 | ≥ 1000 | – | – | – | – | CC1CC(NC(=O)[C@H]2O[C@@H](n3cc(-c4ccn(C)n4)c4c(N)ncnc43)[C@H](O)[C@@H]2O)CCN1C (stereo in doubt) [Compound I-231]
13 | < 10 | 10 to 100 | ≥ 1000 | ≥ 1000 | – | – | – | – | CNc1ccc2ccc(NC(=O)[C@H]3O[C@@H](n4cc(-c5ccn(C)n5)c5c(N)ncnc54)C[C@@H]3O)cc2n1 [Compound I-35]
